Data from US8901164B2, “Amphipathic and other double-sided alpha-helix mimetics based on a 1,2-diphenylacetylene scaffold” (University of Maryland, Baltimore, priority 2013, dated 2014).

Molecular target: Mcl-1-Bak-BH3 complex (Homo sapiens, UniProt Q07820)
Assay: Antagonism of the Mcl-1-Bak-BH3 complex (preliminary studies)
Format: binding
Conditions: read-out: IC50 for antagonizing the Mcl-1-Bak-BH3 complex

Sequence of Mcl-1-Bak-BH3 complex (Q07820 172-327 limits assumed, one chain of several): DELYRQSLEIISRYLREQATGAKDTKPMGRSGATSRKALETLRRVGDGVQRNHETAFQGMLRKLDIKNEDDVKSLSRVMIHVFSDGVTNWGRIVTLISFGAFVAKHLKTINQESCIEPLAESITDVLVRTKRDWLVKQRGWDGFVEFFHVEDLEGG

In the case of CC(C)COc1ccc(C(=O)NCCN)c(C#Cc2cc(OCc3ccccc3)ccc2NC(=O)C(=O)O)c1OCC(C)C [Compound 14, 2-((2-((6-((2-Aminoethyl)carbamoyl)-2,3-diisobutoxyphenyl)ethynyl)-4-(benzyloxy)phenyl)amino)-2-oxoacetic acid], the IC50 is reported as 3.24 ± 0.48 µM.
